Results reported in patent US8865688B2, “Compositions and methods for treatment of bowel diseases with granulated mesalamine” (priority 2008, dated 2014).
Like-named read-outs stand apart in the source and are kept apart here.

Columns and labels:
clinical = details: human, in vivo, 1600 mg
CYP2C19 = CYP2C19 (Homo sapiens, UniProt P33261); assay: In vitro drug-drug interaction study, human liver microsomes; type: in vitro ADME
CYP1A2 = target: T1, CYP1A2 (Homo sapiens, UniProt P05177); assay: as above; type: in vitro ADME
T1 construct: In an in vitro study using human liver microsomes; from tissue; host or cells: human liver microsomes
T1 sequence (P05177 1-516): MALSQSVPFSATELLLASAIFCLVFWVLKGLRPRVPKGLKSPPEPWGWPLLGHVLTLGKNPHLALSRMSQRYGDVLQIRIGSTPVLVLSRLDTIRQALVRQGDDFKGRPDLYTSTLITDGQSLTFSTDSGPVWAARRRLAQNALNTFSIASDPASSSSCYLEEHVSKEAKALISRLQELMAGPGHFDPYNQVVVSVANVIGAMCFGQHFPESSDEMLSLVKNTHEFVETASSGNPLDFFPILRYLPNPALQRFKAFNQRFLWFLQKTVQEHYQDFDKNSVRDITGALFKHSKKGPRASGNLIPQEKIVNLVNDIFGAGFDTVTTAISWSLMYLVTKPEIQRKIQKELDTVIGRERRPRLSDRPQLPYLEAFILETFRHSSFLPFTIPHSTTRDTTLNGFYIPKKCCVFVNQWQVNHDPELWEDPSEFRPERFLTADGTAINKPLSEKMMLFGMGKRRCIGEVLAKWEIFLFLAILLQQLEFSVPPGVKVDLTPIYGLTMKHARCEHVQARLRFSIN

[1] = Single and multiple oral dose pharmacokinetics of 1.5 g granulated mesalamine formulation, crossover, healthy subjects, fasting; details: for AUC(0-t): AUC0-24, plasma, n = 24; for AUC(0-t) / Cmax: mean ±SD; for Tmax: median (range)
CYP3A4 = CYP3A4 (Homo sapiens, UniProt P08684); assay: In vitro drug-drug interaction study, human liver microsomes; type: in vitro ADME
CYP2C9 = CYP2C9 (Homo sapiens, UniProt P11712); assay: as above; type: in vitro ADME
[2] = Detection in human breast milk; details: in vivo
[3] = Steady state pharmacokinetics, 3 treatments of 4 days: Asacol 800 mg BID, granulated mesalamine formulation 800 mg BID and 1600 mg QD; type: in vivo, human; details: for AUC / Cmax / Tmax: human, plasma, oral; for Tmax: median (range), read-out: Tmax
Method: In a study of 3 treatments in 3 study periods, each separated by a minimum washout of 7 days, treatments were administered orally, and were as follows:
Subjects received treatments A, B, and C, with each administered during one of the three 4-day study treatment periods.
Each treatment regimen lasted for 4 days and was followed by at least a 7 day washout period.

in vitro = details: plasma
[4] = Effect of high fat meal on absorption of 1.6 g mesalamine granules in sachet, crossover, healthy subjects; type: in vivo, human
[5] = human, in vivo, 1600 mg
CYP2D6 = CYP2D6 (Homo sapiens, UniProt P10635); assay: In vitro drug-drug interaction study, human liver microsomes; type: in vitro ADME
[6] = human, plasma, oral, 1.5 g, multiple dose 1.5 g QD, after 7 days
[7] = human, plasma, oral, 1.5 g, single dose 1.5 g
[8] = MP 1600 mg QD versus MP 800 mg BID, geometric mean ratio

Sequence of CYP3A4 (P08684 whole entry): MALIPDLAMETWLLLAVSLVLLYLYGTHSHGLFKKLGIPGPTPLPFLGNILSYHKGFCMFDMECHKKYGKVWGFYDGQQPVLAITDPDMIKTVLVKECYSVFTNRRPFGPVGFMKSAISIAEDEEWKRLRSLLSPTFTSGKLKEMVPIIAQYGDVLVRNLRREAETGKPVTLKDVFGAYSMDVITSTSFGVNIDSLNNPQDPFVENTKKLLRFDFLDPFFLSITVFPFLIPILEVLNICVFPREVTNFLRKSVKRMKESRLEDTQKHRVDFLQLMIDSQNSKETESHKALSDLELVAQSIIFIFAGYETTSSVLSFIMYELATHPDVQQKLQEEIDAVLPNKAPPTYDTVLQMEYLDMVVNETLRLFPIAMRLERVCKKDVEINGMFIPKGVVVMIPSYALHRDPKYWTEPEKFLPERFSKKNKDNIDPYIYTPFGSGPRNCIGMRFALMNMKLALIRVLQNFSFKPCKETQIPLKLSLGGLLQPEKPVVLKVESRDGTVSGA
Sequence of CYP2C19 (P33261 whole entry): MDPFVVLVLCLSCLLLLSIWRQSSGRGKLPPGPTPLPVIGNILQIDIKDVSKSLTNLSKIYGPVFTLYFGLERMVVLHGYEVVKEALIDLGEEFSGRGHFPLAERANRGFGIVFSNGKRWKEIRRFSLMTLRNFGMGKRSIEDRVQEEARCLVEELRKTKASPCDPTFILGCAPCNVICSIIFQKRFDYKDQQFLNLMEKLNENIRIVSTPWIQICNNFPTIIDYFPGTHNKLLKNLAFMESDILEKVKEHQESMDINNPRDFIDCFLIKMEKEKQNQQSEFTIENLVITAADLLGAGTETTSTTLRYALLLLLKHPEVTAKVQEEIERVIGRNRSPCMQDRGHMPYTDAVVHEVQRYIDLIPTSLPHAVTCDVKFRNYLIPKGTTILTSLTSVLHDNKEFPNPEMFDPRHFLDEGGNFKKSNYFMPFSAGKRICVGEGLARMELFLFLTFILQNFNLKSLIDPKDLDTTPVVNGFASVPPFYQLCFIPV
Sequence of CYP2D6 (P10635 whole entry): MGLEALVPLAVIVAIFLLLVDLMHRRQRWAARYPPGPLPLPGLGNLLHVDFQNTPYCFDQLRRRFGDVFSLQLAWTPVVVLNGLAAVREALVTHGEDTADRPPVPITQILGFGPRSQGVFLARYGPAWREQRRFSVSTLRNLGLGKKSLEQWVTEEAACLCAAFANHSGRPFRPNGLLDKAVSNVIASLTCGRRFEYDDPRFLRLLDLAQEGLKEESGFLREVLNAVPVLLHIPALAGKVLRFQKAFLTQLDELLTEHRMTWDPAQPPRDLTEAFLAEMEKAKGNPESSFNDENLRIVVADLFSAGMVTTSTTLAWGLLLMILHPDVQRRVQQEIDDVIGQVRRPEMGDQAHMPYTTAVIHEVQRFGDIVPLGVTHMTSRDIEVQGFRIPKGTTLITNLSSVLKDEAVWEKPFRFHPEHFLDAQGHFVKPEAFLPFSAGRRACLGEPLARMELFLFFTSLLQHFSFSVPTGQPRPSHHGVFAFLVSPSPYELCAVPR
Sequence of CYP2C9 (P11712 whole entry): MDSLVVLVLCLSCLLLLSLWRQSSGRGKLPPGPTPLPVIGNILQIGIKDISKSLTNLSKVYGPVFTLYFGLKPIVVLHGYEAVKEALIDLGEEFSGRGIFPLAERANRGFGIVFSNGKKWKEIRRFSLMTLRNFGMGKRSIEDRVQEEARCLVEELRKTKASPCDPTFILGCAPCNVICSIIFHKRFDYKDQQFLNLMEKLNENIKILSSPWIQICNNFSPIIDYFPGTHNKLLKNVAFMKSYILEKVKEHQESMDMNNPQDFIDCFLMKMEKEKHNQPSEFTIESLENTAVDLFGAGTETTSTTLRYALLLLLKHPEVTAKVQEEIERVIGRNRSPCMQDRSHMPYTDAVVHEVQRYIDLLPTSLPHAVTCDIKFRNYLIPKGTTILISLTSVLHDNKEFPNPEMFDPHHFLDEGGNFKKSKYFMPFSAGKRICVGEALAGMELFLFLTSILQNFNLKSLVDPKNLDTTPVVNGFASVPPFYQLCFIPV

Compound: CC(=O)Nc1ccc(O)c(C(=O)O)c1 [N-Ac-5-ASA, N-acetyl-5-aminosalicylic acid]
- half-life (clinical): 10.1 h
- Inhibition of CYP2C19 (CYP2C19): not to inhibit
- Inhibition of CYP1A2 (CYP1A2): not to inhibit
- Increase in systemic exposure (AUC0-24) at steady state compared with a single dose ([1]; 1.5 g granulated mesalamine formulation): 1.7 fold
- AUC(0-inf) ([1]; human, plasma, oral, 1.5 g): 51000 ± 23000 ng·h/mL
- AUC(0-t) [1, 6]: 37000 ± 9000 ng·h/mL
- AUC(0-t) ([1]; human, plasma, oral, 1.5 g, single dose 1.5 g granulated mesalamine formulation, fasting): 26000 ± 6000 ng·h/mL
- Cmax ([1]; human, plasma, oral, 1.5 g, plasma, multiple dose 1.5 g QD, after 7 days): 3400 ± 900 ng/mL
- Cmax [1, 7]: 2800 ± 800 ng/mL
- half-life ([1]; human, plasma, oral, 1.5 g, Mean half-lives, following single and multiple doses of granulated mesalamine formulation): 12 to 14 h
- Tmax [1, 6]: 5 h
- Tmax [1, 7]: 4 h
- half-life ([1]; human, plasma, oral, 1.5 g, t1/2, multiple dose 1.5 g QD, after 7 days, harmonic mean (pseudo SD)): 14 ± 10 h
- half-life ([1]; human, plasma, oral, 1.5 g, t1/2, single dose 1.5 g, harmonic mean (pseudo SD)): 12 ± 11 h
- Inhibition of CYP3A4 (CYP3A4): not to inhibit
- Inhibition of CYP2C9 (CYP2C9): not to inhibit
- Concentration detected in human breast milk [2]: higher concentrations
- AUC C/B Ratio (90% CI) [3, 8]: 93 (78, 112)
- Cmax C/B Ratio (90% CI) [3, 8]: 118 (98, 143)
- Steady state plasma concentrations as measured by Cmax, QD compared to BID ([3]; granulated mesalamine formulation): higher
- Systemic exposure, QD versus BID regimen ([3]; granulated mesalamine formulation 1600 mg QD vs 800 mg BID): comparable
- Time to maximum drug concentrations, mean ([3]; granulated mesalamine formulation administered BID): 11.68 h
- Time to maximum drug concentrations, mean ([3]; granulated mesalamine formulation administered QD): 5.21 h
- Cmax ratio, QD compared to BID ([3]; granulated mesalamine formulation, steady state): 118%
- AUC ([3]; 800 mg, AUC, AUCC, Day 4, after Asacol 800 mg BID, converted from μmol * h/L): 30700 ± 22200 ng·h/mL
- AUC ([3]; 800 mg, AUCC, Day 4, after MP 800 mg BID, converted from μmol * h/L, read-out: AUC): 46400 ± 15400 ng·h/mL
- AUC ([3]; 800 mg, AUCC, Day 4, after Treatment A Asacol 800 mg BID, mean ± SD, read-out: AUC): 158 ± 114 µM·h
- AUC ([3]; 800 mg, AUCC, Day 4, after Treatment B MP 800 mg BID, mean ± SD, read-out: AUC): 238 ± 79.1 µM·h
- Cmax ([3]; 800 mg, Day 4, after Asacol 800 mg BID, converted from μmol/L, mean ± SD): 2340 ± 1800 ng/mL
- Cmax ([3]; 800 mg, Day 4, after MP 800 mg BID, converted from μmol/L, mean ± SD): 3610 ± 1230 ng/mL
- Cmax ([3]; 800 mg, Day 4, after Treatment A Asacol 800 mg BID, n = 28, mean ± SD): 12 ± 9.22 µM
- Cmax ([3]; 800 mg, Day 4, after Treatment B MP 800 mg BID, n = 28, mean ± SD): 18.5 ± 6.31 µM
- AUC ([3]; 1600 mg, AUC0-24, Day 4, after MP 1600 mg QD, converted from μmol * h/L, read-out: AUC): 45800 ± 19700 ng·h/mL
- AUC ([3]; 1600 mg, AUC0-24, Day 4, after Treatment C MP 1600 mg QD, mean ± SD, read-out: AUC): 235 ± 101 µM·h
- Cmax ([3]; 1600 mg, Day 4, after MP 1600 mg QD, converted from μmol/L, mean ± SD): 4500 ± 1820 ng/mL
- Cmax ([3]; 1600 mg, Day 4, after Treatment C MP 1600 mg QD, n = 28, mean ± SD): 23.1 ± 9.35 µM
- Tmax ([3]; Day 4, after MP 800 mg BID, time from first dose): 16 h
- Tmax ([3]; Day 4, after MP 1600 mg QD): 3 h
- fraction unbound at 2.5 μg/mL (in vitro): 0.22
- Tmax following a high-fat meal ([4]; 1.6 g granulated mesalamine (2×0.8 g)): prolonged
- Effect of high fat meal on overall (rate and) extent of absorption ([4]; 1.6 g granules): not affected
- Effect of high fat meal on plasma Cmax ([4]; 1.6 g granules, fed vs fasted, 80%:125% rule): equivalent
- T1/2 [5]: 10.05 h
- Inhibition of CYP2D6 (CYP2D6): not to inhibit
